The values below come from patent US9364462B2, “Alpha-1-adrenergic receptor agonist therapy” (The Regents of the University of California, priority 2012, dated 2016).

One data set deals with kinase ERK. Nature of the data set: ERK activation in neonatal rat cardiac muscle cells in vitro. The class given is cell-based. The note with it: FIG. 1. The source says:
FIG. 1. A61603 protects neonatal cardiac muscle cells.

Data set [1] in a line: Ischemic, post-myocardial infarction (LAD ligation) cardiomyopathy model. Type of data set: in vivo, mouse. The text has this: FIG. 9. A61603 rescues ischemic, post-myocardial infarction (MI) cardiomyopathy. Mice had echo 4 weeks after LAD ligation (MI), at which time they were randomized to treatment with A61603, at the same low dose, or vehicle.
FIG. 10. A61603 in ischemic, post-MI cardiomyopathy improves growth and protection, and reduces fibrosis. Values are normalized to mice treated with vehicle. Mice treated with A61603 had smaller atria, less fibrosis, higher fractional shortening (FS), smaller left ventricle end diastolic diameter (LVEDD), and larger myocyte size in the surviving heart (MC CSA). The size of the MI was unchanged, as expected because treatment started 4 weeks after LAD ligation, by which time the MI had healed.
Studies in mice looking at alpha-1 agonist therapy, using A61603, in a model of heart failure and cardiomyopathy due to myocardial infarction (heart attack). We used an animal model of myocardial infarction to test whether the alpha-1A agonist A61603 could rescue (e.g. treat) cardiomyopathy, when treatment was initiated at some time after injury (e.g. after the acute period was complete). Rescue mimics what is seen commonly in the clinic, where patients are admitted with HF, caused by a cardiomyopathy that has been present for months or years. This model was a model of ischemic, post-myocardial infarction (MI) cardiomyopathy. Ischemic heart disease caused by coronary atherosclerosis is extremely common and ischemic and overload cardiomyopathies associated with these diseases comprise the largest group of patients with HF. We used a mouse model of coronary ligation to cause MI. The mouse coronary ligation was permanent, however, patients typically have some form of reperfusion (e.g. angioplasty). We used a mouse model where the MI is healed completely, which is typical for patients admitted with HF late after MI. A61603 treatment rescued (e.g treated) the cardiomyopathy, as measured by heart function (FIG. 9A-B).
The improvement in function caused by A61603 after MI was again due to direct effects on ardiac muscle cells (FIG. 10). In this case, the effect was to increase the size of muscle cells in the surviving heart wall, helping restore the total amount of contracting heart muscle. There was also less fibrosis than control. The smaller weight of the atria indicates lower pressures within the left ventricle, a beneficial functional outcome, and the smaller diameter of the left ventricle indicates less cardiac enlargement, also a beneficial outcome.

The subject of data set [2] is neonatal rat cardiac muscle cells. Nature of the data set: Protein synthesis in neonatal rat cardiac muscle cells in vitro. Type of data set: cell-based. The note with it: FIG. 2 (neonatal rat) and FIG. 20. The text has this:
FIG. 2. A61603 is adaptive in neonatal cardiac muscle cells.
FIG. 20. A61603 is adaptive in cardiac muscle cells.

The next data set relates to ERK. As to the kind of experiment: ERK activation in adult mouse cardiac muscle cells. Particulars: low concentration, FIG. 3 left. The class given is cell-based. The text has this: FIG. 3. A61603 protects adult cardiac muscle cells. In adult mouse cardiac muscle cells, A61603 at a low concentration activates ERK (left), and protects against a cardiotoxic cancer drug, (DOX) (right). These effects are not blocked by a beta-blocker, propranolol (Prop), which is current standard of care in heart failure therapy. That is, A61603 effects are additive to those of a beta-blocker. Knockout of the alpha-1A receptor (AKO) eliminates myocyte protection by A61603 (right), showing that the drug does indeed work through the alpha-1A, as expected.

Another data set deals with α1AR. The note with it: Evans et al. (2011); cited from earlier work.
Data set [3] in a line: Blood pressure after acute intraperitoneal injection, indwelling arterial catheter. Type of data set: in vivo, mouse. The note with it: 10 ng/kg injected acutely intraperitoneal. Here is the method:
The classic effect of alpha-1-agonists is to increase BP by stimulating smooth muscle cells to contract. It could be a disadvantage in heart failure (HF) therapy to increase BP excessively. On the other hand, all current recommended drugs in HF reduce BP, and a drug that increased BP slightly might have a strong therapeutic advantage. […] The foregoing experiments provided the rationale to test treatment with A61603 at 10 ng/kg/d in a mouse model of cardiomyopathy and HF.

A short description of data set [4]: Right ventricle cardiomyopathy in pulmonary hypertension (bleomycin) model. Type of data set: in vivo, mouse. The source says:
FIG. 11. A61603 reduces right ventricle (RV) cardiomyopathy in pulmonary hypertension. Mice had bleomycin instilled into the trachea and treatment with A61603 or vehicle. […] Mice with the alpha-1A knocked out did worse (α1ABKO).
Studies in mice looking at alpha-1 agonist therapy, using A61603, in a model of right ventricular failure from pulmonary hypertension. Failure of the right ventricle (RV) is a serious consequence of HF due to disease of the left ventricle (LV), and is also seen as an isolated problem, e.g. in lung disease (e.g. lung fibrosis), where treatment is extremely limited. Experiments were conducted with A61603 therapy in a mouse model of RV cardiomyopathy caused by pulmonary hypertension, which in turn was caused by lung fibrosis. Installation of bleomycin into the lung, caused fibrosis and secondary pulmonary hypertension and RV failure. Mice were treated continuously with A61603 or vehicle.

The nature of data set [5]: Traumatic brain injury (TBI) by cortical impact, MRI. Type of data set: in vivo, mouse. The note with it: 4 weeks treatment, vs vehicle. The text has this:
FIG. 16. The alpha-1A agonist A61603 reduces the amount of brain damage after TBI, quantified by MRI. Mice had TBI by cortical impact, followed by 4 weeks treatment with A61603 or vehicle. MRI was done to identify viable brain (dark) and fluid-filled areas of lost brain tissue (bright) (left). The volume of dead brain was 50% less with A61603 (red, right).
To test this, we used a mouse model of traumatic brain injury (TBI), produced by a piston impact on the cerebral cortex, done through a hole in the skull. TBI is a clinical problem of great and growing importance.
We tested the model in the alpha-1A knockout (KO) mouse. TBI in the alpha-1A KO caused the worst damage, compared with normal mice and mice with the alpha-1B KO (FIG. 15). We tested A61603 in normal wild type mice, using the same low BP-neutral dose employed in the cardiac studies, 10 ng/kg/d. The protocol was a prevention trial, and the end-point was magnetic resonance imaging (MRI), which can quantify the amount of dead and viable brain tissue in the living subject (e.g. mouse, human) non-invasively. A61603 reduced the amount of dead brain tissue after TBI (FIG. 16).

For the compound `CS(=O)(=O)Nc1c(O)ccc2c1CCCC2C1=NCCN1` (stereo not drawn) [A61603, N-[1-(4,5-dihydro-1H-imidazol-2-yl)-6-hydroxy-tetralin-5-yl]methanesulfonamide], in the data set with kinase ERK, the “activation of the kinase ERK” value was “high efficacy and potency”. Besides, in data set [1] (post-MI, normalized to vehicle), the atria size entry was “smaller atria”, the fibrosis entry is given as “less fibrosis”, the “left ventricle end diastolic diameter (LVEDD)” value was “smaller” and the “myocyte size in the surviving heart (MC CSA)” value is given as “larger”. The “fractional shortening (FS)” value in data set [1] (post-MI, normalized to vehicle, FIG. 10) is “higher”. For the same compound, in data set [1] (post-MI, treatment started 4 weeks after LAD ligation), the “size of the MI” value is given as “unchanged”. Moreover, the fractional shortening result in data set [1] (treatment started 4 weeks after LAD ligation (MI), low dose, vs vehicle) is recorded as “stayed the same or improved”. Further, in data set [2], the “activation of protein synthesis” value was “high efficacy and potency”. The ERK activation entry in the data set on ERK was “activates ERK”. Also, the “cAMP accumulation through α1AR relative to cirazoline” value in the data set with α1AR was “stronger stimulator”. Further, in data set [3], the BP entry is given as “does not increase BP”. Moreover, in data set [4] (bleomycin into trachea, A61603 vs vehicle), the “RV failure (RV weight normalized to body weight)” value was “reduced or prevented RV failure”. The “function of RV muscle taken from treated mice, studied in vitro” value in data set [4] (bleomycin model) is recorded as “better function”. Moreover, in data set [5], the “volume of dead brain, less with A61603” value stood at 50%.
